Source: ChEMBL document CHEMBL5244272 (Eur J Med Chem, 2021)
pEC50, pIC50: −log10 of the molar value. Values after ≈ are worked out from the molar mass of the structure shown.

What was measured:
Plasmodium falciparum [1] = experiment: Antimalarial activity against chloroquine sensitive Plasmodium falciparum FCR-3; type: functional, organism-based
Plasmodium falciparum [2] = experiment: Antimalarial activity against chloroquine-sensitive Plasmodium falciparum NF54 infected in po dosed mouse; type: functional
Plasmodium falciparum [3] = experiment: Antimalarial activity against chloroquine-sensitive Plasmodium falciparum NF54 infected in iv dosed mouse; type: functional
Plasmodium falciparum [4] = experiment: Antimalarial activity against Plasmodium falciparum W2; type: functional, organism-based
Plasmodium falciparum [5] = experiment: Antimalarial activity against Plasmodium falciparum K1; type: functional, organism-based
Plasmodium falciparum [6] = experiment: Antimalarial activity against Plasmodium falciparum NF54; type: functional, organism-based
Plasmodium berghei [7] = experiment: Antimalarial activity against Plasmodium berghei K173 infected in mouse; type: functional
Plasmodium falciparum [8] = experiment: Antimalarial activity against chloroquine-sensitive Plasmodium falciparum NF54; type: functional, organism-based
Plasmodium falciparum [9] = experiment: Antimalarial activity against Plasmodium falciparum 3D7; type: functional, organism-based
Plasmodium yoelii [10] = experiment: Antimalarial activity against Plasmodium yoelii infected in mouse; type: functional
Plasmodium berghei [11] = experiment: Antimalarial activity against Plasmodium berghei N strain infected in mouse at 30 mg/kg, ip administered once daily for 4 days; type: functional; conditions: time 4 day
Plasmodium falciparum [12] = experiment: Antimalarial activity against chloroquine-sensitive Plasmodium falciparum HB3; type: functional, organism-based
Plasmodium falciparum [13] = experiment: Antimalarial activity against chloroquine-resistant Plasmodium falciparum K1; type: functional, organism-based
Plasmodium falciparum [14] = experiment: Antimalarial activity against Plasmodium falciparum RKL9; type: functional, organism-based
Plasmodium falciparum [15] = experiment: Antimalarial activity against ART-sensitive Plasmodium falciparum 3D7; type: functional, organism-based
Plasmodium falciparum [16] = experiment: Antimalarial activity against ART-sensitive Plasmodium falciparum W2; type: functional, organism-based
Plasmodium falciparum [17] = experiment: Antimalarial activity against ART-sensitive Plasmodium falciparum NF54; type: functional, organism-based
Plasmodium falciparum [18] = experiment: Antimalarial activity against ART-resistant Plasmodium falciparum Dd2 harboring R539T mutant; type: functional, organism-based
Plasmodium falciparum [19] = experiment: Antimalarial activity against ART-resistant Plasmodium falciparum NF54 harboring […] mutant; type: functional, organism-based
Plasmodium falciparum [20] = experiment: Antimalarial activity against ART-resistant Plasmodium falciparum harboring R539T mutant assessed as increase in survival at 700 nM; type: functional
Plasmodium berghei [21] = experiment: Antimalarial activity against Plasmodium berghei infected in sc dosed mouse; type: functional; conditions: Plasmodium berghei
Plasmodium berghei [22] = experiment: Antimalarial activity against Plasmodium berghei infected in po dosed mouse; type: functional
Plasmodium falciparum [23] = experiment: Antimalarial activity against late blood stage Plasmodium falciparum NF54 gametocytes; type: functional, organism-based
Plasmodium yoelii [24] = experiment: Antimalarial activity against Plasmodium yoelii infected in sc dosed mouse; type: functional
Plasmodium yoelii [25] = experiment: Antimalarial activity against Plasmodium yoelii infected in po dosed mouse; type: functional
[26] = Toxicity in brine shrimp; conditions: artemia salina
Plasmodium falciparum [27] = experiment: Antimalarial activity against Plasmodium falciparum D10; type: functional, organism-based
Plasmodium berghei [28] = experiment: Antimalarial activity against Plasmodium berghei infected in mouse; type: functional; conditions: Plasmodium berghei
Plasmodium falciparum [29] = experiment: Antimalarial activity against Plasmodium falciparum Dd2; type: functional, organism-based
Plasmodium vinckei [30] = experiment: Antimalarial activity against Plasmodium vinckei infected in ip dosed mouse; type: functional
Plasmodium vinckei [31] = experiment: Antimalarial activity against Plasmodium vinckei infected in po dosed mouse; type: functional

C[C@H]1[C@H](n2cc(-c3cccc(Cl)c3)nn2)O[C@@H]2O[C@]3(C)CC[C@H]4[C@H](C)CC[C@@H]1[C@@]24OO3
pIC50 (Plasmodium falciparum [1]): 8.89

C[C@H]1[C@H](OC(=O)CCC(=O)O)O[C@@H]2O[C@@]3(C)CC[C@H]4[C@H](C)CC[C@@H]1[C@@]24OO3 [ARTESUNATE]
ED50 (Plasmodium falciparum [2]): 5.5 mg/kg | ED50 (Plasmodium falciparum [3]): 5.5 mg/kg | pIC50 (Plasmodium falciparum [4]): 8.70 | IC50 (Plasmodium falciparum [5]): 0.0012 µg/mL | IC50 (Plasmodium falciparum [6]): 0.0012 µg/mL | ED50 (Plasmodium berghei [7]; Plasmodium berghei, K173): 6.33 mg/kg/day | pIC50 (Plasmodium falciparum [8]): 7.73 | pEC50 (Plasmodium falciparum [9]; read-out: EC50): 8.05 | ED50 (Plasmodium yoelii [10]): 5 mg/kg | Activity (Plasmodium berghei [11]): 97.7%

C[C@H]1[C@@H](OCc2ccc(CN3CCCC3)cc2)O[C@@H]2O[C@]3(C)CC[C@H]4[C@H](C)CC[C@@H]1[C@@]24OO3
pIC50 (Plasmodium falciparum [12]): 8.64 | pIC50 (Plasmodium falciparum [13]): 8.64

CC1(c2ccccc2)OOC(c2ccccc2)(c2ccccc2)OO1
IC50 (Plasmodium falciparum [14]): 3.91 µg/mL

C[C@H]1[C@H](N2CCN(c3ccc(S(=O)(=O)N(C)C)c4nonc34)CC2)O[C@@H]2O[C@]3(C)CC[C@H]4[C@H](C)CC[C@@H]1[C@@]24OO3
pIC50 (Plasmodium falciparum [15]): 6.46 | pIC50 (Plasmodium falciparum [16]): 6.60 | pIC50 (Plasmodium falciparum [17]): 7.79 | pIC50 (Plasmodium falciparum [18]): 6.30 | pIC50 (Plasmodium falciparum [19]): 7.87

c1cc([C@H]2CC[C@]3(CC2)OOC2(O3)C3CC4CC(C3)CC2C4)ccc1OCCC1CCNCC1 (some centres undefined)
Activity (Plasmodium falciparum [20]): <0.01%

C[C@H]1[C@H](c2cccn2C)O[C@@H]2O[C@]3(C)CC[C@H]4[C@H](C)CC[C@@H]1[C@@]24OO3
ED50 (Plasmodium berghei [21]): 0.7 mg/kg | ED90 (Plasmodium berghei [22]): 8.5 mg/kg

CC1(C)CC(O)(COc2ccc([C@H]3CC[C@]4(CC3)OOC3(O4)C4CC5CC(C4)CC3C5)cc2)CC(C)(C)N1 (some centres undefined)
Activity (Plasmodium falciparum [20]): <0.01%

C[C@H]1[C@H](NS(=O)(=O)N2CCN(c3ccccn3)CC2)O[C@@H]2O[C@]3(C)CC[C@H]4[C@H](C)CC[C@@H]1[C@@]24OO3
pIC50 (Plasmodium falciparum [23]): 10.40

C[C@H]1[C@H](NC2CCN(c3ncccn3)CC2)O[C@@H]2O[C@]3(C)CC[C@H]4[C@H](C)CC[C@@H]1[C@@]24OO3
ED90 (Plasmodium yoelii [24]): 0.52 mg/kg | ED90 (Plasmodium berghei [21]): 0.46 mg/kg | ED90 (Plasmodium berghei [22]): 1.5 mg/kg | ED90 (Plasmodium yoelii [25]): 2 mg/kg

C[C@H]1[C@H](n2cc(-c3ccc(F)cc3)nn2)O[C@@H]2O[C@]3(C)CC[C@H]4[C@H](C)CC[C@@H]1[C@@]24OO3
pIC50 (Plasmodium falciparum [1]): 8.85

C[C@H]1[C@H](NC2CCOCC2)O[C@@H]2O[C@]3(C)CC[C@H]4[C@H](C)CC[C@@H]1[C@@]24OO3
ED90 (Plasmodium yoelii [24]): 1.25 mg/kg | ED90 (Plasmodium berghei [21]): 0.18 mg/kg | ED90 (Plasmodium berghei [22]): 1.3 mg/kg | ED90 (Plasmodium yoelii [25]): 1.84 mg/kg

O=P1(N(CCCl)CCCl)NCCCO1 (centres undefined) [CYCLOPHOSPHAMIDE ANHYDROUS]
LC50 [26]: 1.08 µg/mL (≈ 4.14 µM)

C[C@H]1[C@H](N2CCS(=O)(=O)CC2)O[C@@H]2O[C@]3(C)CC[C@H]4[C@H](C)CC[C@@H]1[C@@]24OO3
pIC50 (Plasmodium falciparum [4]): 9.05 | pIC50 (Plasmodium falciparum [15]): 9.05 | pIC50 (Plasmodium falciparum [16]): 9.30 | pIC50 (Plasmodium falciparum [17]): 9.05 | pIC50 (Plasmodium falciparum [18]): 8.85 | pIC50 (Plasmodium falciparum [19]): 9.15 | pIC50 (Plasmodium falciparum [23]): 7.37 | pIC50 (Plasmodium falciparum [27]): 8.96

N[C@H]1CC[C@@H](Oc2ccc([C@H]3CC[C@]4(CC3)OOC3(O4)C4CC5CC(C4)CC3C5)cc2)CC1 (some centres undefined)
Activity (Plasmodium falciparum [20]): <0.01%

COc1cc(C2OOC3(C)C=CC(=O)CC3O2)ccc1O (centres undefined)
pIC50 (Plasmodium falciparum [9]): 5.91 | pIC50 (Plasmodium falciparum [14]): 5.97

CCO[C@H]1O[C@@H]2O[C@]3(C)CC[C@H]4[C@H](C)CC[C@@H]([C@H]1C)[C@@]24OO3
ED90 (Plasmodium berghei [22]): 6 mg/kg

C[C@H]1[C@@H](CCOCc2cccc(F)c2)O[C@@H]2O[C@]3(C)CC[C@H]4[C@H](C)CC[C@@H]1[C@@]24OO3
pIC50 (Plasmodium falciparum [12]): 9.46 | pIC50 (Plasmodium falciparum [13]): 8.42 | ED50 (Plasmodium berghei [28]): 5.08 mg/kg

C[C@@H]1CC[C@H]2[C@@H](C)C(Nc3cccc(Cl)c3)O[C@@H]3O[C@]4(C)CC[C@@H]1[C@]32OO4 (some centres undefined)
SD50 (Plasmodium berghei [7]): 1.62 mg/kg/day

c1cc([C@H]2CC[C@]3(CC2)OOC2(O3)C3CC4CC(C3)CC2C4)ccc1OCCN1CCOCC1 (some centres undefined)
Activity (Plasmodium falciparum [20]): <0.01%

C[C@H]1[C@H](N2CCN(C(=O)Nc3ccc(C(F)(F)F)cc3)CC2)O[C@@H]2O[C@]3(C)CC[C@H]4[C@H](C)CC[C@@H]1[C@@]24OO3
pIC50 (Plasmodium falciparum [5]): 8.95 | pIC50 (Plasmodium falciparum [6]): 8.74 | pIC50 (Plasmodium falciparum [29]): 7.91 | pIC50 (Plasmodium falciparum [23]): 9.22

CCN(CC)Cc1ccc(CO[C@H]2O[C@@H]3O[C@]4(C)CC[C@H]5[C@H](C)CC[C@@H]([C@H]2C)[C@@]35OO4)cc1
pIC50 (Plasmodium falciparum [12]): 8.51 | pIC50 (Plasmodium falciparum [13]): 8.85

CC(CNCCO[C@H]1O[C@@H]2O[C@]3(C)CC[C@H]4[C@H](C)CC[C@@H]([C@H]1C)[C@@]24OO3)Nc1ccnc2cc(Cl)ccc12 (some centres undefined)
ED50 (Plasmodium vinckei [30]): 1.1 mg/kg | ED50 (Plasmodium vinckei [31]): 12 mg/kg
